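Step 1: Grow cells in 96-well plates. Step 2: Expose to compound for 48 hours at 5 concentrations. Step 3: Interpolate endpoints linearly; if unreached, use highest concentration. Abbreviation: GI50, concentration required for 50% inhibition of growth.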 Calls of active or inactive are those of the source. No stated cut-off is given here; in the data, active = GI50 up to about 1.1 µM and inactive = higher.
Experiments:
Experiment in all cases: NCI tumour cell line growth inhibition, 48 h
[1] = test system: T47D
[2] = test system: Malme-3M
[3] = test system: HOP-92
[4] = test system: OVCAR-8
[5] = test system: HL-60
[6] = test system: OVCAR-4
[7] = test system: SK-MEL-28
[8] = test system: SW-620
[9] = test system: A549
[10] = test system: NCI/ADR-RES
[11] = test system: COLO 205
[12] = test system: SNB-75
[13] = test system: NCI-H226
[14] = test system: SK-MEL-2
[15] = test system: MCF7
[16] = test system: OVCAR-3
[17] = test system: HOP-62
[18] = test system: SF-295
[19] = test system: MOLT-4
[20] = test system: SK-OV-3

| SMILES | GI50 [1] | GI50 [2] | GI50 [3] | GI50 [4] | GI50 [5] | GI50 [6] | GI50 [7] | GI50 [8] | GI50 [9] | GI50 [10] | GI50 [11] | GI50 [12] | GI50 [13] | GI50 [14] | GI50 [15] | GI50 [16] | GI50 [17] | GI50 [18] | GI50 [19] | GI50 [20] |
| --- | --- | --- | --- | --- | --- | --- | --- | --- | --- | --- | --- | --- | --- | --- | --- | --- | --- | --- | --- | --- |
| Cc1cc(=O)oc2cc(O)c(CN(C)CC(=O)O)cc12 | > 100 µM (inactive) | > 100 µM (inactive) | > 100 µM (inactive) | > 100 µM (inactive) | > 100 µM (inactive) | > 100 µM (inactive) | > 100 µM (inactive) | > 100 µM (inactive) | > 100 µM (inactive) | > 100 µM (inactive) | > 100 µM (inactive) | > 100 µM (inactive) | > 100 µM (inactive) | > 100 µM (inactive) | > 100 µM (inactive) |  |  |  |  |  |
| Cc1ccc(S[C@@H](C)[C@@](O)(CF)CN(Cc2ccccc2)C(=O)C(F)(F)F)cc1 | 28.8 µM (inactive) | 20.9 µM (inactive) | 4.65 µM (inactive) | 5.09 µM (inactive) | 19.2 µM (inactive) | 14.9 µM (inactive) | > 100 µM (inactive) | 23.9 µM (inactive) | 14.8 µM (inactive) | 20.6 µM (inactive) |  |  |  | 18.5 µM (inactive) | 20.8 µM (inactive) | 13.7 µM (inactive) |  |  |  |  |
| COc1ccc2nc(-c3ccccc3)cc(OCC(=O)O)c2c1 | > 100 µM (inactive) | > 100 µM (inactive) | > 100 µM (inactive) | > 100 µM (inactive) | > 100 µM (inactive) |  | > 100 µM (inactive) | > 100 µM (inactive) | > 100 µM (inactive) | > 100 µM (inactive) | > 100 µM (inactive) | > 100 µM (inactive) | > 100 µM (inactive) | > 100 µM (inactive) | > 100 µM (inactive) | > 100 µM (inactive) | > 100 µM (inactive) | > 100 µM (inactive) | > 100 µM (inactive) | > 100 µM (inactive) |
| C=C(C)C1CCC2=CC(CC3(C)OC3C3=CC(C(=O)OC)=C(C1)O3)OC2=O (configuration not stated) | 32.9 µM (inactive) | > 100 µM (inactive) | 88.3 µM (inactive) | > 100 µM (inactive) | > 10 µM (inactive) |  | > 100 µM (inactive) | > 100 µM (inactive) | > 100 µM (inactive) | > 100 µM (inactive) |  | 56.2 µM (inactive) | > 100 µM (inactive) | > 100 µM (inactive) | > 100 µM (inactive) | > 100 µM (inactive) | > 100 µM (inactive) | > 100 µM (inactive) | 36.9 µM (inactive) |  |
| CCCCc1ccc(Nc2nc3c(ncn3COCCBr)c(=O)[nH]2)cc1 | 40.1 µM (inactive) | > 100 µM (inactive) | > 100 µM (inactive) | > 100 µM (inactive) | > 100 µM (inactive) | > 100 µM (inactive) |  | > 100 µM (inactive) | > 100 µM (inactive) | > 100 µM (inactive) | > 100 µM (inactive) | > 100 µM (inactive) | > 100 µM (inactive) | > 100 µM (inactive) | > 100 µM (inactive) | > 100 µM (inactive) | > 100 µM (inactive) | > 100 µM (inactive) | > 100 µM (inactive) | > 100 µM (inactive) |
| C=CCn1c(-c2ccc([N+](=O)[O-])cc2)csc1=N | 26.2 µM (inactive) | 76.9 µM (inactive) | 47.5 µM (inactive) | 69.2 µM (inactive) | 18.9 µM (inactive) | 42.8 µM (inactive) | > 100 µM (inactive) | 70 µM (inactive) | 35.5 µM (inactive) | 44.3 µM (inactive) | > 100 µM (inactive) | 19.5 µM (inactive) | 41.6 µM (inactive) | 91.2 µM (inactive) | 25.4 µM (inactive) | 41.4 µM (inactive) | 78.2 µM (inactive) | 18.4 µM (inactive) |  | 54.7 µM (inactive) |
| Cc1ccc(S(=O)(=O)N2CCCSCCSCCCSCC2)cc1 | > 100 µM (inactive) |  | > 100 µM (inactive) | > 100 µM (inactive) | > 100 µM (inactive) | > 100 µM (inactive) | > 100 µM (inactive) | > 100 µM (inactive) | > 100 µM (inactive) | > 100 µM (inactive) | > 100 µM (inactive) | 86.7 µM (inactive) |  |  | > 100 µM (inactive) | > 100 µM (inactive) | > 100 µM (inactive) | > 100 µM (inactive) | > 100 µM (inactive) | > 100 µM (inactive) |
| CO[C@@H]1C[C@H]2[C@@H]3CC[C@H]([C@H](C)COC(C)=O)[C@@]3(C)CC[C@@H]2[C@@]2(C)CC[C@H]3C[C@]312 | > 100 µM (inactive) | > 100 µM (inactive) | 73.5 µM (inactive) | > 100 µM (inactive) | > 100 µM (inactive) | > 100 µM (inactive) | > 100 µM (inactive) | > 100 µM (inactive) | > 100 µM (inactive) | > 100 µM (inactive) | 34 µM (inactive) | > 100 µM (inactive) | > 100 µM (inactive) |  | 81.3 µM (inactive) | > 100 µM (inactive) | > 100 µM (inactive) | > 100 µM (inactive) | > 100 µM (inactive) |  |
| CCCc1c(OC)c(=O)c2c(OC)cc(OC)c3c4c(OC)cc(OC)c5c(=O)c(OC)c(CCC)c(c1c23)c54 | 4.07 µM (inactive) |  | 10.9 µM (inactive) | 17.5 µM (inactive) | 2.77 µM (inactive) | 13.3 µM (inactive) | 13.4 µM (inactive) | 17.3 µM (inactive) | 19.4 µM (inactive) | 21.2 µM (inactive) | 8.47 µM (inactive) | 7.23 µM (inactive) | 16.2 µM (inactive) | 22 µM (inactive) | 17.1 µM (inactive) | 14.8 µM (inactive) | 18 µM (inactive) | 17.8 µM (inactive) | 7.91 µM (inactive) | 15.5 µM (inactive) |
| CCc1cccc(CC)c1NC(=S)NC(=O)c1ccc(Br)cc1 | 21.9 µM (inactive) | 18.4 µM (inactive) | 18.5 µM (inactive) | 54.5 µM (inactive) | 17.5 µM (inactive) | 7.48 µM (inactive) | 55.1 µM (inactive) | 36.5 µM (inactive) | 32.8 µM (inactive) | 29.7 µM (inactive) | 18.1 µM (inactive) | 26.4 µM (inactive) | 21.5 µM (inactive) | 18.6 µM (inactive) | 20.6 µM (inactive) | 36.3 µM (inactive) | 32.4 µM (inactive) | > 53 µM (inactive) | 18.8 µM (inactive) | 64.9 µM (inactive) |
| COc1ccc2c(c1)SC1=Nc3sc4cc(OC)ccc4[n+]3CN12 | 4.99 µM (inactive) | 14.6 µM (inactive) | 2.23 µM (inactive) | 29.4 µM (inactive) | 9.29 µM (inactive) |  |  | 35.7 µM (inactive) | 29.1 µM (inactive) | 99.3 µM (inactive) | 2.96 µM (inactive) |  |  | 15.8 µM (inactive) | 5.25 µM (inactive) | 2.72 µM (inactive) | 49.8 µM (inactive) | 31.3 µM (inactive) | 4.62 µM (inactive) | 70.5 µM (inactive) |
| CCOC(=O)c1ccc(NC(NC(=O)CC)(C(F)(F)F)C(F)(F)F)cc1 | > 100 µM (inactive) | > 100 µM (inactive) | > 100 µM (inactive) | > 100 µM (inactive) | > 100 µM (inactive) |  | > 100 µM (inactive) | > 100 µM (inactive) | > 100 µM (inactive) | > 100 µM (inactive) | > 100 µM (inactive) | > 100 µM (inactive) | > 100 µM (inactive) | > 100 µM (inactive) | > 100 µM (inactive) | > 100 µM (inactive) | > 100 µM (inactive) | > 100 µM (inactive) | 55.5 µM (inactive) | > 100 µM (inactive) |
| N=c1oc2ccccc2cc1C(=O)Nc1nccs1 | 14.1 µM (inactive) | 35.6 µM (inactive) | 32.5 µM (inactive) | 16.8 µM (inactive) | 0.91 µM (active) | 20.5 µM (inactive) | 44.5 µM (inactive) | 19.9 µM (inactive) | 44.6 µM (inactive) | 19.7 µM (inactive) | 14.6 µM (inactive) | 35.6 µM (inactive) | 19.7 µM (inactive) | 26.9 µM (inactive) | 5.7 µM (inactive) | 9.31 µM (inactive) | 18.8 µM (inactive) | 35.6 µM (inactive) | 4.8 µM (inactive) | 7.78 µM (inactive) |
| CCCN(CCc1ccc(-c2ccccc2)cc1)CCc1ccc2nn[nH]c2c1 | 4.04 µM (inactive) | 8.79 µM (inactive) | 5.37 µM (inactive) | 13.7 µM (inactive) |  | 14.6 µM (inactive) | 4.31 µM (inactive) | 10.7 µM (inactive) | 13.1 µM (inactive) | 14.7 µM (inactive) | 2.55 µM (inactive) | 12.3 µM (inactive) | 15.8 µM (inactive) | 15.6 µM (inactive) | 11.6 µM (inactive) | 12.5 µM (inactive) | 12.5 µM (inactive) | 12 µM (inactive) | 3.75 µM (inactive) | 14.2 µM (inactive) |
| C#CCN(Cc1ccc2[nH]c(N)nc(=O)c2c1)c1ccc(C(=O)NC(CCC(=O)O)C(=O)O)cc1 (configuration not stated) | 9.35 µM (inactive) | 47.5 µM (inactive) | 28.7 µM (inactive) | 4.4 µM (inactive) | > 100 µM (inactive) |  | > 100 µM (inactive) | > 100 µM (inactive) | 53.5 µM (inactive) | 36.6 µM (inactive) | 12 µM (inactive) |  | > 100 µM (inactive) |  | 5.13 µM (inactive) | 9.71 µM (inactive) | 23.4 µM (inactive) | 34 µM (inactive) | 5.4 µM (inactive) | > 100 µM (inactive) |
